Laboratory results as given in ChEMBL document CHEMBL5579883, “Discovery of Novel Neo-Clerodane Derivatives as Potent Dual-Functional Antiosteoporosis Agents through Targeting Peroxisome Proliferator-Activated Receptor-γ” (J Med Chem, 2024).
The source made the active and inactive calls. The calls are words filed in the database; no cut-off is given here.

Assays:
[1] = system: BMDM; experiment: Inhibition of osteoclastogenesis in C57BL/6J mouse Bone marrow macrophage cells assessed as inhibition of RANKL-stimulated osteoclast formation measured after 6 days by tartrate-resistant acid phosphatase (TRAP) staining assay; conditions: 144 h
[2] = system: BMDM; experiment: Cytotoxicity against mouse Bone marrow macrophage at 10 uM measured after 72 hrs by MTT assay; assay type: toxicity, cell-based
[3] = target: T1, Peroxisome proliferator-activated receptor gamma (Homo sapiens, UniProt P37231); experiment: Antagonist activity at PPAR gamma LBD (203 to 476 residues) (unknown origin) expressed in HEK293T cells co-transfected with pCMV-GAL4-PPARgamma-LBD-SV40-Renilla-luciferase assessed as reduction of rosiglitazone induced PPAR-gamma activation incubated for 24 hrs by dural-luciferase reporter assay; assay type: cell-based
T1 sequence (P37231 whole entry): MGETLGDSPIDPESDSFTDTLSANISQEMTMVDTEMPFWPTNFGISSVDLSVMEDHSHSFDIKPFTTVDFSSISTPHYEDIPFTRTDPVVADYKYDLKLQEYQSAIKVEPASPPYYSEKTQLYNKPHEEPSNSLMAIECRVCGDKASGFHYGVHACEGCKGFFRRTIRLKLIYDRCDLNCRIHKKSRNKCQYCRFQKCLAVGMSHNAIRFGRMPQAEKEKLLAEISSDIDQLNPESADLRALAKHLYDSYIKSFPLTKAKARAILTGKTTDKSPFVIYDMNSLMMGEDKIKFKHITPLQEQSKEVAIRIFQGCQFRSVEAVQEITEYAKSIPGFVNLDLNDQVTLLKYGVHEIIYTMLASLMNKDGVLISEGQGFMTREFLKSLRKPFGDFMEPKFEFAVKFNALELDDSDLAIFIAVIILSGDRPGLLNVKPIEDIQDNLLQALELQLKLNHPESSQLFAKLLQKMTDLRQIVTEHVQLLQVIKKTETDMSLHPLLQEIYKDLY

[4] = system: BMDM; experiment: cells; conditions: Mus musculus, 144 h, read-out: INH
Description: Inhibition of osteoclastogenesis in C57BL/6J mouse Bone marrow macrophage cells assessed as inhibition of RANKL-stimulated osteoclast formation at 10 uM measured after 6 days by tartrate-resistant acid phosphatase (TRAP) staining assay relative to control

[5] = system: BMDM; experiment: Inhibition of osteoclastogenesis in C57BL/6J mouse Bone marrow macrophage cells assessed as inhibition of RANKL-stimulated osteoclast formation at 10 uM measured after 7 days in presence of rosiglitazone by tartrate-resistant acid phosphatase (TRAP) staining assay; assay type: functional, cell-based; conditions: time 7.0 day
[6] = target: T1, Peroxisome proliferator-activated receptor gamma; experiment: Binding affinity to PPAR gamma LBD (203 to 476 residues) (unknown origin) extracted from Escherichia coli BL21 (DE3) cells assessed as dissociation constant in presence of rosiglitazone by Isothermal titration calorimetry method
[7] = target: Nuclear receptor corepressor 1 (Homo sapiens) (UniProt O75376); experiment: Effect on NCoR recruitment (unknown origin) at 10 uM incubated for 24 hrs by TR-FRET assay
[8] = target: T2, Peroxisome proliferator-activated receptor gamma coactivator 1-alpha (Homo sapiens) (UniProt Q9UBK2); experiment: Effect on PGC-1 alpha recruitment (unknown origin) incubated for 24 hrs at 10 uM by TR-FRET assay
T2 sequence (whole entry): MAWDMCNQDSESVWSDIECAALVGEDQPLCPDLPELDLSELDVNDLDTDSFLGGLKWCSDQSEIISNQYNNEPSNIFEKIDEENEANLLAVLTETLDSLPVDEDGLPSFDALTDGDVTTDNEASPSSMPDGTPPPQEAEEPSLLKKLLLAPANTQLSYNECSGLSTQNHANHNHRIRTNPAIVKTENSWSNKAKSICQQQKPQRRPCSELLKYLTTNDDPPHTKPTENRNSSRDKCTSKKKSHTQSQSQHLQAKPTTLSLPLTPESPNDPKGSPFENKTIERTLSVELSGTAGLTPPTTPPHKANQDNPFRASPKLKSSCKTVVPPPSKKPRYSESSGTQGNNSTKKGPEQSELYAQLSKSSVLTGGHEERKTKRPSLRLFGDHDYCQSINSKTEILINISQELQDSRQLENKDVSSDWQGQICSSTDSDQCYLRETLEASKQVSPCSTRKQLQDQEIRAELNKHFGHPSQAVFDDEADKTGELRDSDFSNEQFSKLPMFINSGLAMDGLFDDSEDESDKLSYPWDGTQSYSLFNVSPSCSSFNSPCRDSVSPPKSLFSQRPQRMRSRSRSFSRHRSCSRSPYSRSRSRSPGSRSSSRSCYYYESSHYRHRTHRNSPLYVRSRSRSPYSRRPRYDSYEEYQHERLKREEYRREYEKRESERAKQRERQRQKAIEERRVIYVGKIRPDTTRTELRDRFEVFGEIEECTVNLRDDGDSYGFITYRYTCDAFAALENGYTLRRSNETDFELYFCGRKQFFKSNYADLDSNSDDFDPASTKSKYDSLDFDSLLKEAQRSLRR

[9] = target: T1, Peroxisome proliferator-activated receptor gamma; experiment: Binding affinity to PPAR gamma LBD (203 to 476 residues) (unknown origin) extracted from Escherichia coli BL21 (DE3) cells assessed as dissociation constant by Isothermal titration calorimetry method
[10] = system: BMDM; experiment: Inhibition of osteoclastogenesis in C57BL/6J mouse Bone marrow macrophage cells assessed as inhibition of RANKL-stimulated osteoclast formation at 10 uM measured after 7 days by tartrate-resistant acid phosphatase (TRAP) staining assay; assay type: functional, cell-based; conditions: time 7.0 day
[11] = system: Mus musculus; experiment: Anti-osteoporosis activity in OVX-induced osteoporosis C57BL/6J mouse model assessed as prevention of trabecular thickness decrease in femur at 10 mg/kg, IG administered once a day for 4 weeks by micro-CT scanning analysis; assay type: functional, organism-based
[12] = system: Mus musculus; experiment: Anti-osteoporosis activity in OVX-induced osteoporosis C57BL/6J mouse model assessed as reduction in osteocalcin level at 10 mg/kg, IG administered once a day for 4 weeks by ELISA method; assay type: functional, organism-based
[13] = system: Mus musculus; experiment: Anti-osteoporosis activity in OVX-induced osteoporosis C57BL/6J mouse model assessed as reduction in PINP level at 10 mg/kg, IG administered once a day for 4 weeks by ELISA method; assay type: functional, organism-based
[14] = system: Mus musculus; experiment: Anti-osteoporosis activity in OVX-induced osteoporosis C57BL/6J mouse model assessed as recovery of serum estradiol level at 10 mg/kg, IG administered once a day for 4 weeks by ELISA method; assay type: functional, organism-based
[15] = system: Mus musculus; experiment: Anti-osteoporosis activity in OVX-induced osteoporosis C57BL/6J mouse model assessed as prevention of bone volume/[…] volume decrease in femur at 10 mg/kg, IG administered once a day for 4 weeks by micro-CT scanning analysis; assay type: functional, organism-based
[16] = system: Mus musculus; experiment: Anti-osteoporosis activity in C57BL/6J mouse model assessed as downregulation of OVX-induced IL-6 accumulation at 10 mg/kg, IG administered once a day for 4 weeks by ELISA method; assay type: functional, organism-based
[17] = system: Mus musculus; experiment: Anti-osteoporosis activity in C57BL/6J mouse model assessed as downregulation of OVX-induced TNF-alpha accumulation at 10 mg/kg, IG administered once a day for 4 weeks by ELISA method; assay type: functional, organism-based
[18] = system: Mus musculus; experiment: Anti-osteoporosis activity in OVX-induced osteoporosis C57BL/6J mouse model assessed as prevention of increase in bone surface area/bone volume in femur at 10 mg/kg, IG administered once a day for 4 weeks by micro-CT scanning analysis; assay type: functional, organism-based
[19] = system: Mus musculus; experiment: Anti-osteoporosis activity in OVX-induced osteoporosis C57BL/6J mouse model assessed as reduction in ACP5 level at 10 mg/kg, IG administered once a day for 4 weeks by ELISA method; assay type: functional, organism-based
[20] = system: Mus musculus; experiment: Anti-osteoporosis activity in OVX-induced osteoporosis C57BL/6J mouse model assessed as reduction in CTX-1 level at 10 mg/kg, IG administered once a day for 4 weeks by ELISA method; assay type: functional, organism-based
[21] = system: Mus musculus; experiment: Anti-osteoporosis activity in OVX-induced osteoporosis C57BL/6J mouse model assessed as reduction in RANKL level at 10 mg/kg, IG administered once a day for 4 weeks by ELISA method; assay type: functional, organism-based
[22] = system: Mus musculus; experiment: Anti-osteoporosis activity in OVX-induced osteoporosis C57BL/6J mouse model assessed as prevention of trabecular number decrease in femur at 10 mg/kg, IG administered once a day for 4 weeks by micro-CT scanning analysis; assay type: functional, organism-based

Nuclear receptor corepressor 1 (Homo sapiens), sequence (O75376 whole entry): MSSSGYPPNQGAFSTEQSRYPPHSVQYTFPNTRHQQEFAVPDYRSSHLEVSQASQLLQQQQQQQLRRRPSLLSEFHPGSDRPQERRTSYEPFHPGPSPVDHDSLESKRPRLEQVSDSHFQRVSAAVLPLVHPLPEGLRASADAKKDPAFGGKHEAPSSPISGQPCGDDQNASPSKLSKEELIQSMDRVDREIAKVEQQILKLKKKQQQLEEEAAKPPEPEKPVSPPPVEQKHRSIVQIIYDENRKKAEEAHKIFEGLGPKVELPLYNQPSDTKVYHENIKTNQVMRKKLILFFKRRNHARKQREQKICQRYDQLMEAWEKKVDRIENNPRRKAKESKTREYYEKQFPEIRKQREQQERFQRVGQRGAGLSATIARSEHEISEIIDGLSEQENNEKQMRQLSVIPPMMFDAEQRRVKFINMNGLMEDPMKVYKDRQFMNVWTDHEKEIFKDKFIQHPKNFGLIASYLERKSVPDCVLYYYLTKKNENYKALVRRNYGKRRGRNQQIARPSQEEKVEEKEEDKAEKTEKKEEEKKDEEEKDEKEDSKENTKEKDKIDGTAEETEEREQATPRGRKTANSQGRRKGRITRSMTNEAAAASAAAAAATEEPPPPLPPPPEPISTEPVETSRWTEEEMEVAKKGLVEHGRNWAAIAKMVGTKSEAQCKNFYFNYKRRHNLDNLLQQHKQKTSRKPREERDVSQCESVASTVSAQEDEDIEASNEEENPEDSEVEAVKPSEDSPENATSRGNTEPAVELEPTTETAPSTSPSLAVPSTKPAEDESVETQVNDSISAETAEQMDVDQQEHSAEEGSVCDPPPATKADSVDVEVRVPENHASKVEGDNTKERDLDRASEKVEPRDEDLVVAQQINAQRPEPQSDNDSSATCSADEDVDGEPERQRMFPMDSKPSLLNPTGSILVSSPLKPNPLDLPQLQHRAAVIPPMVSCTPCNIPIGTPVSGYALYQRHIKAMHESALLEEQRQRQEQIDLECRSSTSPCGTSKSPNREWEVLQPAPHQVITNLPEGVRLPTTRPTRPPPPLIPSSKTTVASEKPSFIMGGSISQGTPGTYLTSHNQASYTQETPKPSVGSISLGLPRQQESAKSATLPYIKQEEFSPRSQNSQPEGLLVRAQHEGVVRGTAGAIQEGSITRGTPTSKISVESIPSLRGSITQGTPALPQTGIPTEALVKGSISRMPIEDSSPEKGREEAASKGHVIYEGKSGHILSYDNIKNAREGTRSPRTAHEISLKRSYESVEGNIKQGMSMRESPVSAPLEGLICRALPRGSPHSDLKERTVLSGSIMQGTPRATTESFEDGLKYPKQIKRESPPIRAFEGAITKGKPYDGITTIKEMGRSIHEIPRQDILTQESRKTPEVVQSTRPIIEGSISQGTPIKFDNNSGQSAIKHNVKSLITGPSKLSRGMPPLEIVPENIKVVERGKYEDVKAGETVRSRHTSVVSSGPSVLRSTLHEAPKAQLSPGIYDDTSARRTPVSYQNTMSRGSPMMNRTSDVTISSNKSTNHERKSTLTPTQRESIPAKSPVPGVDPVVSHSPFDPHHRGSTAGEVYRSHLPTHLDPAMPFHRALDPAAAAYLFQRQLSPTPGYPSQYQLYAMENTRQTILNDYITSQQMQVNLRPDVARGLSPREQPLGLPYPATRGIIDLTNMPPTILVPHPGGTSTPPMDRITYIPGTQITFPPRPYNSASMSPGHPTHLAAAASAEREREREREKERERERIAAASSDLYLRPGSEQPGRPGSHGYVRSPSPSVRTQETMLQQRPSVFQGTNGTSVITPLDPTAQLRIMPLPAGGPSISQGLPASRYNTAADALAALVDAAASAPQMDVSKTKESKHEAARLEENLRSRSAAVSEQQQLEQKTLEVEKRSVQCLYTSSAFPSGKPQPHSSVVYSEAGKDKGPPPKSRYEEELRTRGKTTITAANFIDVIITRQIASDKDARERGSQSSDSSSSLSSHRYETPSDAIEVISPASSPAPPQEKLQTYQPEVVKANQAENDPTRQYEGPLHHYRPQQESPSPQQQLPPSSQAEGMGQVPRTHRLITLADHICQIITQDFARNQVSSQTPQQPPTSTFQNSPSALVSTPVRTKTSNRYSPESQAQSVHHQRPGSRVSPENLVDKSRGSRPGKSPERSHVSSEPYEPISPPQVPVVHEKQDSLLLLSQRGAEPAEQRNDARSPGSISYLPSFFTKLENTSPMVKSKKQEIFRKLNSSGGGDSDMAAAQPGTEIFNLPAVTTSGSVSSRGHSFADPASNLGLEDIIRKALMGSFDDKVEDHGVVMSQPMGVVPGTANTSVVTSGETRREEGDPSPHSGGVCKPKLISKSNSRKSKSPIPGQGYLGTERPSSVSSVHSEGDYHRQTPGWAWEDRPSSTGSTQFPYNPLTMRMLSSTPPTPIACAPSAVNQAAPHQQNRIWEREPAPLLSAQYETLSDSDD

Row | Compound | IC50 [1] | Activity [2] | IC50 [3] | inhibition at 10 µM [4] | inhibition [5] | Kd [6] | Activity [7] | Activity [8] | Kd [9] | inhibition [10] | also measured
1 | C/C=C(\C)C(=O)OC[C@@]12[C@H](CCC[C@]1(O)CCl)[C@@](C)(C[C@H](O)C1=CC(=O)OC1)[C@H](C)C[C@@H]2O | 1720 nM | Non-Toxic | 11.5 µM | > 50% | – | – | – | – | – | – | –
2 | C/C=C(\C)C(=O)O[C@@H](C[C@@]1(C)[C@H](C)C[C@H](OC(C)=O)[C@]2(COC(C)=O)[C@@H]1[C@H](O)CC[C@]21CO1)C1=CC(=O)OC1 | 4680 nM | Non-Toxic | 19.5 µM | > 50% | – | – | – | – | – | – | –
3 | C/C=C(\C)C(=O)OC[C@@]12[C@@H](OC(C)=O)C[C@@H](C)[C@](C)(CCC3=CC(=O)OC3)[C@H]1CCC[C@]21CO1 [AJUGACUMBIN A] | 1920 nM | Non-Toxic | 8.35 µM | > 50% | Active | 79.5 µM | inactive | inactive | 17.7 µM | Active | –
4 | C/C=C(\C)C(=O)O[C@@H](C[C@@]1(C)[C@H](C)C[C@H](OC(C)=O)[C@]2(COC(C)=O)[C@@H]1CCC[C@]21CO1)C1=CC(=O)OC1 [AJUGANIPPONIN B] | 970 nM | Non-Toxic | 6.99 µM | > 50% | Active | 127 µM | inactive | inactive | 16 µM | Active | –
5 | CC(=O)OC[C@@]12[C@@H](OC(C)=O)C[C@@H](C)[C@](C)(C[C@H](OC(C)=O)C3=CC(=O)OC3)[C@H]1CCC[C@]21CO1 | 2730 nM | Non-Toxic | 13.2 µM | > 50% | – | – | – | – | – | – | –
6 | CCC(C)C(=O)O[C@@H](C[C@@]1(C)[C@H](C)C[C@H](OC(C)=O)[C@]2(COC(C)=O)[C@@H]1CCC[C@]21CO1)C1=CC(=O)OC1 (stereo partly drawn) | 1420 nM | Non-Toxic | 12.2 µM | > 50% | – | – | – | – | – | – | Activity [11]: Active; Activity [12]: Active; Activity [13]: Active; Activity [14]: Active; Activity [15]: Active; Activity [16]: Active; Activity [17]: Active; Activity [18]: Active; Activity [19]: Active; Activity [20]: Active; Activity [21]: Active; Activity [22]: Active
